Tests used:
[1] = Toxicity in BALB/c nude mouse xenografted with human MCF7 cells assessed as effect on spleen at 10 mg/kg, iv administered every 2 days for 2 weeks; assay type: organism-based; conditions: in vivo, 336 h
A549 = experiment: Antiproliferative activity against human A549 cells assessed as reduction in cell viability incubated for 72 hrs by MTT assay; assay type: functional, cell-based; conditions: A549, 72 h
MCF7 = experiment: Antiproliferative activity against human MCF7 cells assessed as reduction in cell viability incubated for 72 hrs by MTT assay; assay type: functional, cell-based; conditions: MCF7, 72 h
SGC-7901 = experiment: Antiproliferative activity against human SGC-7901 cells assessed as reduction in cell viability incubated for 72 hrs by MTT assay; assay type: functional, cell-based; conditions: SGC-7901, 72 h

SMILES	Activity [1]	IC50 (A549)	IC50 (MCF7)	IC50 (SGC-7901)
Nc1ccn([C@@H]2O[C@H](CO)[C@@H](O)C2(F)F)c(=O)n1 [GEMCITABINE]	Toxic			
COc1cc(-n2cnc3ccc(-c4cccc(N)c4)cc32)cc(OC)c1OC		640 nM	180 nM	21 nM
CCOc1ccc(-c2ccc3ncn(-c4cc(OC)c(OC)c(OC)c4)c3c2)cc1		8550 nM	1710 nM	2970 nM
COc1cc(-n2cnc3ccc(-c4ccc(C)cc4)cc32)cc(OC)c1OC		1940 nM	110 nM	200 nM
COc1cc(-c2ccc3ncn(-c4cc(OC)c(OC)c(OC)c4)c3c2)cc(OC)c1OC		> 10000 nM	> 10000 nM	> 10000 nM
COc1cc(-n2cnc3ccc(-c4ccc(Cl)cc4Cl)cc32)cc(OC)c1OC		> 10000 nM	5420 nM	> 10000 nM
COc1cc(-n2cnc3ccc(-c4ccc(Cl)cc4)cc32)cc(OC)c1OC		> 10000 nM	1320 nM	1270 nM
COc1cc(-n2cnc3ccc(-c4cccc([N+](=O)[O-])c4)cc32)cc(OC)c1OC		5410 nM	4560 nM	380 nM
COc1cc(-n2cnc3ccc(-c4cccc(C)c4C)cc32)cc(OC)c1OC		9250 nM	2150 nM	3040 nM
COc1cc(-n2cnc3ccc(-c4ccc(C(F)(F)F)cc4)cc32)cc(OC)c1OC		3390 nM	760 nM	890 nM
COc1cc(-n2cnc3ccc(-c4ccc([N+](=O)[O-])cc4)cc32)cc(OC)c1OC		8940 nM	740 nM	79 nM
COc1cc(-n2cnc3ccc(-c4ccccc4Cl)cc32)cc(OC)c1OC		> 10000 nM	> 10000 nM	> 10000 nM
COc1cc2c(c(OC)c1OC)-c1ccc(OC)c(=O)cc1[C@@H](NC(C)=O)CC2 [COLCHICINE]		95 nM	18 nM	7 nM
COc1cc(-n2cnc3ccc(-c4cccc(O)c4)cc32)cc(OC)c1OC		250 nM	350 nM	53 nM

Source: ChEMBL document CHEMBL5038611, “Design, synthesis and bioevaluation of 6-aryl-1-(3,4,5-trimethoxyphenyl)-1H-benzo[d]imidazoles as tubulin polymerization inhibitors” (Eur J Med Chem, 2021)
